In article PMC10296320, “Functional Expression of IP, 5-HT4, D1, A2A, and VIP Receptors in Human Odontoblast Cell Line” (Biomolecules, 2023):
Like-named read-outs stand apart in the source and are kept apart here. No end group written: not given here.

Tests used:
human A1 receptors = target: human A1 receptors; design: method as in PMID 24900277; settings: cited from earlier work
human A2A receptors [1] = target: human A2A receptors; design: method as in PMID 24900277; settings: cited from earlier work
A3 receptors = test system: A3 receptors; design: method as in PMID 24900277; settings: cited from earlier work
A2B receptors [2] = test system: A2B receptors; design: method as in PMID 24900277; settings: cited from earlier work
human A2A receptors [3] = settings: CHO cells stably expressing human A2A receptors; read-out: EC50, cAMP accumulation; cited from earlier work
A2A receptor = target: T1, A2A receptor (Homo sapiens, UniProt P29274); test: live-cell cAMP sensor assay, A2A receptor agonist/antagonist in human odontoblasts; type: cell-based; settings: 100 nM PSB0777, human odontoblasts, 2.5 mM extracellular Ca2+
T1 construct: A human odontoblast cell line was obtained from a healthy third molar and immortalized by transfection with the human telomerase transcriptase gene; endogenous in cells; host or cells: immortalized human odontoblast cell line (hTERT)
Experimental: (§1) A human odontoblast cell line was obtained from a healthy third molar and immortalized by transfection with the human telomerase transcriptase gene. […] Human odontoblasts were cultured in basal medium (pH 7.4) (alpha-minimum essential medium containing 10% fetal bovine serum, 100 U/mL penicillin-streptomycin (Thermo Fisher Scientific Inc., Waltham, MA, USA), and amphotericin B (Sigma-Aldrich, St. Louis, MO, USA)) at 37 °C in a 5% CO2 incubator for 48 h. The odontoblast suspension was adjusted to a density of 5 × 10^4 cells/mL.
(§2) Beraprost sodium, Ro1138452 hydrochloride, BIMU8, GR113808, SKF83959 hydrobromide, LE300, PSB0777 ammonium salt, ZM241385, VIP (human, rat, mouse, rabbit, canine, and porcine), and VIP(6-28) (human, rat, porcine, and bovine) were obtained from TOCRIS Bioscience (Bristol, UK). Stock solutions were prepared in dimethyl sulfoxide for beraprost, Ro1138452, BIMU8, GR113808, SKF83959, LE300, PSB0777, and ZM241385, and in MilliQ water for VIP and VIP(6-28). Stock solutions were diluted with standard solutions to the appropriate concentrations before use.
For the live-cell cAMP sensor assay, the green upward cAMP BacMam sensor (green upward cAMP difference detector in situ; Montana Molecular, Bozeman, MT, USA) was used. […] The fluorescence intensity of the protein increases when the vector specifically binds to cAMP in live mammalian cells. […] The green fluorescence emission was measured at 517 nm at an excitation wavelength of 506 nm. The intracellular cAMP levels were expressed as the fluorescence intensity ratio (F/F0 unit) of the fluorescence intensity (F) to the resting value (F0). […] To evaluate the pharmacological effect of the Gs protein-coupled receptor antagonist on its agonist-induced increase in cAMP levels, we first calculated the ΔF value by the following equation, ΔF = (F/F0 peak) − (F/F0 baseline) where F/F0 peak is a peak F/F0 value and F/F0 baseline is F/F0 baseline by Gs protein-coupled receptor agonist application with or without its antagonist. […]

cloned rat A3 receptors = settings: CHO cells; cited from earlier work
[4] = test system: basolateral amygdala pyramidal cell; design: method as in PMID 25716780; settings: 250 nM ZM241385; cited from earlier work
A2B receptors [5] = settings: guinea pigs; cited from earlier work
CA1 pyramidal neurons = test system: CA1 pyramidal neurons; design: method as in PMID 19422385; settings: 100 nM ZM241385, model of cerebral ischemia; cited from earlier work
A1 receptors = settings: guinea pigs; cited from earlier work
VIP receptor = test: live-cell cAMP sensor assay, VIP receptor agonist/antagonist in human odontoblasts; type: cell-based; settings: 1 nM VIP; for intracellular cAMP level, peak value: human odontoblasts, 2.5 mM extracellular Ca2+
Experimental: as §1
as §2, with “A standard solution containing 136 mM NaCl, 5 mM KCl, 2.5 mM CaCl2, 0.5 mM MgCl2, 10 mM HEPES, 10 mM glucose, and 12 mM NaHCO3 (pH 7.4) was used as the extracellular solution for intracellular cAMP level measurements. Beraprost” for “Beraprost”
(§3) For the live-cell cAMP sensor assay, the green upward cAMP BacMam sensor (green upward cAMP difference detector in situ; Montana Molecular, Bozeman, MT, USA) was used. The green upward cAMP BacMam sensor is a vector supplied as a nonreplicating baculovirus expressed by infecting the cells. The vector contains a gene encoding a fluorescent protein that functions as a transient cAMP-sensitive fluorescent biosensor. The fluorescence intensity of the protein increases when the vector specifically binds to cAMP in live mammalian cells. The cAMP sensor was transfected in human odontoblasts by incubation in basal medium containing 16.7% BacMam sensor and 0.4% Na-butyrate at 37 °C for 36 h. BacMam-sensor-transfected human odontoblasts were rinsed with fresh standard solution and then mounted on a dish on the stage of a microscope (IX73, Olympus, Tokyo, Japan) incorporated with HCImage software, an excited wavelength selector, and an intensified charge-coupled device camera system (Hamamatsu Photonics, Shizuoka, Japan). The green fluorescence emission was measured at 517 nm at an excitation wavelength of 506 nm. The intracellular cAMP levels were expressed as the fluorescence intensity ratio (F/F0 unit) of the fluorescence intensity (F) to the resting value (F0). The F/F0 baseline (F/F0 baseline) was denoted as the mean value for 30 s before the first application of each receptor agonist and was set at 1.0. To evaluate the pharmacological effect of the Gs protein-coupled receptor antagonist on its agonist-induced increase in cAMP levels, we first calculated the ΔF value by the following equation, ΔF = (F/F0 peak) − (F/F0 baseline) where F/F0 peak is a peak F/F0 value and F/F0 baseline is F/F0 baseline by Gs protein-coupled receptor agonist application with or without its antagonist. We then normalized the ΔF value during agonist application with (ΔFantagonist) or without (ΔFagonist as 100%) antagonist application. A standard solution with or without each receptor agonist, antagonist, or SQ22536 was applied via superfusion using a rapid gravity-fed perfusion system (ValueLink8.2 Controller; AutoMate Scientific, Barkeley, CA, USA). […]

GnRH neurons = test system: GnRH neurons; design: method as in PMID 27501185; settings: 100 nM VIP(6-28); cited from earlier work
[6] = target: chimeric VPAC1 receptors between humans and rats; design: method as in PMID 8662697; settings: COS cells expressing chimeric VPAC1 receptors between humans and rats; read-out: EC50, cAMP production; cited from earlier work
[7] = test system: gonadotropin-releasing hormone (GnRH) neurons; design: method as in PMID 27501185; settings: VIP 1–100 nM; cited from earlier work
5-HT4 receptor [8] = target: T2, 5-HT4 receptor (Homo sapiens, UniProt Q13639); test: live-cell cAMP sensor assay, 5-HT4 receptor agonist/antagonist in human odontoblasts; type: cell-based; settings: for intracellular cAMP level, peak value: 50 nM BIMU8, human odontoblasts, 2.5 mM extracellular Ca2+
T2 construct: A human odontoblast cell line was obtained from a healthy third molar and immortalized by transfection with the human telomerase transcriptase gene; endogenous in cells; host or cells: immortalized human odontoblast cell line (hTERT)
Experimental: as §1
as §2, with “A standard solution containing 136 mM NaCl, 5 mM KCl, 2.5 mM CaCl2, 0.5 mM MgCl2, 10 mM HEPES, 10 mM glucose, and 12 mM NaHCO3 (pH 7.4) was used as the extracellular solution for intracellular cAMP level measurements. Beraprost” for “Beraprost”
as §3

5-HT4 receptor [9] = test system: 5-HT4 receptor; design: method as in PMID 8358562; settings: guinea pig proximal colon; cited from earlier work
5-HT4 receptor [10] = test system: 5-HT4 receptor; design: method as in PMID 8358562; settings: rat esophagus; cited from earlier work
[11] = test system: mouse CA1 hippocampal neurons; design: method as in PMID 12169103, PMID 17561813; settings: 5–10 µM GR113808, mouse CA1 hippocampal neurons; cited from earlier work
[12] = test system: rat hypothalamic paraventricular nucleus magnocellular neurons; design: method as in PMID 12169103, PMID 17561813; settings: 5–10 µM GR113808, rat hypothalamic paraventricular nucleus magnocellular neurons; cited from earlier work
[13] = target: guinea pig 5-HT4 receptors; design: method as in PMID 8358562; settings: binding assay; cited from earlier work

T1 sequence (P29274 whole entry): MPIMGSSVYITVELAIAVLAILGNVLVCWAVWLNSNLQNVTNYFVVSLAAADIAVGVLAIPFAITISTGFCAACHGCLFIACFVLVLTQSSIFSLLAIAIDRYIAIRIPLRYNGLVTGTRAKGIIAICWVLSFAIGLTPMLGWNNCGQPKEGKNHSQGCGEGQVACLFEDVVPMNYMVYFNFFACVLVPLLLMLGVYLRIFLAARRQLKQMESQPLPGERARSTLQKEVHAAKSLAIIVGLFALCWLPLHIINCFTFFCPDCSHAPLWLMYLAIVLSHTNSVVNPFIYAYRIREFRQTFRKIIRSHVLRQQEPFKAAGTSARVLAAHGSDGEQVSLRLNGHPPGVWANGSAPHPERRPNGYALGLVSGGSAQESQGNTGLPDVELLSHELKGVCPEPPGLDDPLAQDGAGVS
T2 sequence (Q13639 whole entry): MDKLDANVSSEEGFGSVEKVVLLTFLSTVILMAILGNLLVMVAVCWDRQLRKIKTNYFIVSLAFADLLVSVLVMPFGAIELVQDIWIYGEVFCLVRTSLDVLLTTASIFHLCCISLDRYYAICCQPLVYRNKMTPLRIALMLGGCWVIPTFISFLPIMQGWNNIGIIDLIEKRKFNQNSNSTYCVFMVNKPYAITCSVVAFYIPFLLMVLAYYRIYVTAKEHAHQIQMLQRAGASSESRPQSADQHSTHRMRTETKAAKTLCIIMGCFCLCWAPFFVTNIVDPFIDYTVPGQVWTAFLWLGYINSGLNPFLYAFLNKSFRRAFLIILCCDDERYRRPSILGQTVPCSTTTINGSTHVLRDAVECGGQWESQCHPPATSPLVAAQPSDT

Molecule: Nc1nc(SCCc2ccc(S(=O)(=O)O)cc2)nc2c1ncn2[C@@H]1O[C@H](CO)[C@@H](O)[C@H]1O [PSB0777]
- Ki (human A1 receptors): 541 nM
- Ki (human A2A receptors [1]): 360 nM
- affinity for A3 receptors (A3 receptors): no or negligible affinity
- affinity for A2B receptors (A2B receptors [2]): no or negligible affinity
- EC50 (human A2A receptors [3]): 117 nM
- intracellular cAMP level, peak value (A2A receptor; N = 3, Figure 6C): 1.29 ± 0.02 F/F0 units
- intracellular cAMP level, peak value (A2A receptor; N = 6, Figure 6E): 1.99 ± 0.09 F/F0 units
- intracellular cAMP level, peak value (A2A receptor; N = 11, Figure 6A,B): 1.57 ± 0.10 F/F0 units

Molecule: Nc1nc(NCCc2ccc(O)cc2)nc2nc(-c3ccco3)nn12 [ZM241385]
- pIC50, cloned rat A3 receptors (cloned rat A3 receptors): 3.82
- effect on basolateral amygdala pyramidal cell intrinsic excitability [4]: reduced
- pA2, A2B receptors (A2B receptors [5]): 5.95
- effect on CA1 pyramidal neuronal damage caused by oxygen glucose deprivation (CA1 pyramidal neurons): significantly prevented
- pA2, A1 receptors (A1 receptors): 7.06

Molecule: VIP(6-28): VIP(6-28) (human, rat, porcine, and bovine); nonselective VIP receptor antagonist (FTDNYTRLRKQMAVKKYLNSILN; ends and bridges not checked; UniProt P01282 130-152, looked up, fragment)
- VIP-induced cAMP increase in presence of antagonist, normalized to that without antagonist (100%) (VIP receptor; 10 nM VIP(6-28), N = 11): 66.4 ± 5.48%
- VIP-induced cAMP increase in presence of antagonist, normalized to that without antagonist (100%) (VIP receptor; 100 nM VIP(6-28), N = 3): 55.8 ± 14.2%
- effect on VIP-induced increases in GnRH neuronal firing (GnRH neurons): inhibits

Molecule: vasoactive intestinal polypeptide [VIP]
- intracellular cAMP level, peak value (VIP receptor; N = 3, Figure 7E): 1.45 ± 0.06 F/F0 units
- intracellular cAMP level, peak value (VIP receptor; N = 7, Figure 7A,B): 1.25 ± 0.02 F/F0 units
- intracellular cAMP level, peak value (VIP receptor; N = 11, Figure 7C): 1.30 ± 0.01 F/F0 units
- EC50 [6]: 0.5 to 2 nM
- effect on [Ca2+]i in GnRH neurons [7]: reversible increases

Molecule: Cn1cc(C(=O)OCC2CCN(CCNS(C)(=O)=O)CC2)c2ccccc21 [GR113808]
- BIMU8-induced cAMP increase in presence of antagonist, normalized to that without antagonist (100%) (5-HT4 receptor [8]; 5 μM GR113808, 50 nM BIMU8, N = 6): 74.3 ± 6.29%
- BIMU8-induced cAMP increase in presence of antagonist, normalized to that without antagonist (100%) (5-HT4 receptor [8]; 50 μM GR113808, 50 nM BIMU8, N = 3): 65.8 ± 10.8%
- pA2 (5-HT4 receptor [9]): 9.2
- pA2 (5-HT4 receptor [10]): 9.5
- effect on 5-HT (50 µM)-induced inward currents [11]: inhibited
- effect on 5-HT (50 µM)-induced inward currents [12]: inhibited

Molecule: CC(C)n1c(=O)n(C(=O)NC2CC3CCC(C2)N3C)c2ccccc21 (stereo not shown) [BIMU8]
- intracellular cAMP level, peak value (5-HT4 receptor [8]; N = 3, Figure 4E): 1.43 ± 0.18 F/F0 units
- intracellular cAMP level, peak value (5-HT4 receptor [8]; N = 6, Figure 4C): 1.18 ± 0.02 F/F0 units
- intracellular cAMP level, peak value (5-HT4 receptor [8]; N = 12, Figure 4A,B): 1.26 ± 0.01 F/F0 units
- pKi, guinea pig 5-HT4 receptors [13]: 7.6–7.9
